target: main protease (Mpro) of SARS-CoV-2 (Severe acute respiratory syndrome coronavirus 2 (2019-nCoV) (SARS-CoV-2), UniProt P0DTD1); assay: Enzyme IC50 of SARS-CoV-2 inhibitors; format: biochemical; conditions: Table 1, Example SARS-COV-2 inhibitors

Work on `Cc1cncc(-c2nnc3n2CCN(C(c2ccccc2)c2ccccc2)C3)c1` [PKJ-585] yielded an IC50 of 5.8 µM.

same assay, conditions: Table 2, List of compounds

Compared with `Cc1cncc(C(=O)N2CCC(=C3c4ccccc4C[S+]([O-])c4ccccc43)CC2)c1` (centres unmarked) [NZ- 826, (5-methyl-3-pyridyl)-[4-(5-oxo-6H-benzo[c][1]benzothiepin-11-ylidene)-1-piperidyl]methanone], `Cc1cncc(C(=O)N2CCC(=C3c4ccccc4CS(=N)(=O)c4ccccc43)CC2)c1` (centres unmarked) [NZ- 827, [4-(5-imino-5-oxo-6H-benzo[c][1]benzothiepin-11-ylidene)-1-piperidyl]-(5-methyl-3-pyridyl)methanone] is lower in IC50: 0.06 to 0.07 µM for the first, 0.057 µM for the second. The second is the more potent here.

`O=C(c1cncc2cc[nH]c12)N1CCC(=C2c3ccccc3CSc3ccccc32)CC1` [NZ- 828, [4-(6H-benzo[c][1]benzothiepin-11-ylidene)-1-piperidyl]-(1H-pyrrolo[3,2-c]pyridin-7-yl)methanone] and `O=C(c1cncc2cc[nH]c12)N1CCC(=C2c3ccccc3C[S+]([O-])c3ccccc32)CC1` (centres unmarked) [NZ- 829, [4-(5-oxo-6H-benzo[c][1]benzothiepin-11-ylidene)-1-piperidyl]-(1H-pyrrolo[3,2-c]pyridin-7-yl)methanone] cannot be ordered by IC50: 0.021 to 0.033 µM for the first, 0.015 to 0.031 µM for the second.

First: N=S1(=O)Cc2ccccc2C(=C2CCN(C(=O)c3cncc4cc[nH]c34)CC2)c2ccccc21 (centres unmarked) [NZ- 830, [4-(5-imino-5-oxo-6H-benzo[c][1]benzothiepin-11-ylidene)-1-piperidyl]-(1H-pyrrolo [3,2-c]pyridin-7-yl)methanone]
Second: O=C1Cc2ccccc2C(=C2CCN(C(=O)c3cncc4cc[nH]c34)CC2)c2ccccc21 [NZ- 839]
The IC50 of the first is higher: 0.032 to 0.039 µM for the first, 0.018 µM for the second.

First: Cc1cncc(C(=O)N2CCN(C3c4ccccc4CS(=O)(=O)c4ccc(F)cc43)CC2)c1 (centres unmarked) [NZ- 831, [4-(2-fluoro-5,5-dioxo-6,11-dihydrobenzo[c][1]benzothiepin-11-yl)piperazin-1-yl]-(5-methyl-3-pyridyl)methanone]
Second: Cc1cncc(C(=O)N2CCN(C3c4cc(F)ccc4CS(=O)(=O)c4ccccc43)CC2)c1 (centres unmarked) [NZ- 833, [4-(9-fluoro-5,5-dioxo-6,11-dihydrobenzo[c][1]benzothiepin-11-yl)piperazin-1-yl]-(5-methyl-3-pyridyl)methanone]
The IC50 of the first is lower: 0.045 µM for the first, 0.066 to 0.13 µM for the second. The first is the more potent here.

`O=C(c1cncc2cc[nH]c12)N1CCN(C2c3ccccc3CS(=O)(=O)c3ccc(F)cc32)CC1` (centres unmarked) [NZ- 832, [4-(2-fluoro-5,5-dioxo-6,11-dihydrobenzo[c][1]benzothiepin-11-yl)piperazin-1-yl]-(1H-pyrrolo[3,2-c]pyridin-7-yl)methanone] and `O=C(c1cncc2cc[nH]c12)N1CCN(C2c3cc(F)ccc3CS(=O)(=O)c3ccccc32)CC1` (centres unmarked) [NZ- 834, [4-(9-fluoro-5,5-dioxo-6,11-dihydrobenzo[c][1]benzothiepin-11-yl)piperazin-1-yl]-(1H-pyrrolo[3,2-c]pyridin-7-yl)methanone] cannot be ordered by IC50: 0.018 µM for the first, 0.014 to 0.047 µM for the second.

First: Cc1cncc(C(=O)N2CCC(=C3c4ccccc4CC(=O)c4sccc43)CC2)c1 [NZ- 835, 2-[1-(5-methylpyridine-3-carbonyl)-4-piperidylidene]-6-thiatricyclo[8.4.0.03,7]tetradeca-1(10),3(7),4,11,13-pentaen-8-one]
Second: O=C1Cc2ccccc2C(=C2CCN(C(=O)c3cncc4cc[nH]c34)CC2)c2ccsc21 [NZ- 836]
The IC50 of the first is higher: 0.027 to 0.048 µM for the first, 0.009 to 0.02 µM for the second.

In the case of `O=C(c1cncc2cc[nH]c12)N1CCC(=C2c3ccccc3C3OC3c3ccccc32)CC1` (centres unmarked) [NZ- 838], the IC50 is reported as 0.091 µM.

Reference: US20250074907A1, “INHIBITORS OF SARS-COV-2” (THE TEXAS A&M UNIVERSITY SYSTEM, priority 2021, published 2025)
